Test results from patent US9040523B2, “Antifungal 5,6-dihydro-4H-pyrrolo[1,2-α][1,4]-benzodiazepines and 6H-pyrrolo[1,2-α][1,4]benzodiazepines substituted with benzene derivatives” (JANSSEN PHARMACEUTICA NV, priority 2010, dated 2015).

tested on: not given; test: not given; details: not given

Structure (SMILES) | melting point [°C]
CC(=O)c1ccc(C2=NCc3cccc(Cl)c3-n3cccc32)cc1 [Compound 15, 1-[4-(10-chloro-6H-pyrrolo[1,2-a][1,4]benzodiazepin-4-yl)phenyl]-ethanone] | 171.4 to 171.8
CC(=O)c1cc(C2=NCc3c(Cl)cccc3-n3cccc32)ccc1F [Compound 19, 1-[5-(7-chloro-6H-pyrrolo[1,2-a][1,4]benzodiazepin-4-yl)-2-fluorophenyl]-ethanone] | 146.2 to 147.7
CC(=O)c1ccc(C2=NCc3c(F)cccc3-n3cccc32)cc1 [Compound 20, 1-[4-(7-fluoro-6H-pyrrolo[1,2-a][1,4]benzodiazepin-4-yl)phenyl]-ethanone] | 215.2 to 216

tested on: Microsporum canis B68128; test: Antifungal activity in vitro (resazurin susceptibility screen), Inf. B; format: cell-based; details: Microsporum canis, B68128, Microsporum canis B68128; 27 °C, 9 days, resa time 24 hours; read-out: Inf. B pIC50 (converted)
Summary of the method: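 Each well was inoculated with 10^3 cfu of fungus onto dried, pre-spotted compound serial dilutions in RPMI-MOPS medium, with fungal growth read by resazurin. Growth was referenced to drug-free culture (100%) and medium-only (0%) controls on each plate.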

Structure (SMILES) | IC50 [nM]
CC(=O)c1ccc(C2=NCc3cccc(Cl)c3-n3cccc32)cc1 [Compound 15, 1-[4-(10-chloro-6H-pyrrolo[1,2-a][1,4]benzodiazepin-4-yl)phenyl]-ethanone] | 631
CC(=O)c1cc(C2=NCc3c(Cl)cccc3-n3cccc32)ccc1F [Compound 19, 1-[5-(7-chloro-6H-pyrrolo[1,2-a][1,4]benzodiazepin-4-yl)-2-fluorophenyl]-ethanone] | 1580
CC(=O)c1ccc(C2=NCc3c(F)cccc3-n3cccc32)cc1 [Compound 20, 1-[4-(7-fluoro-6H-pyrrolo[1,2-a][1,4]benzodiazepin-4-yl)phenyl]-ethanone] | 1260

target: CYP3A4 (Homo sapiens, UniProt P08684); test: Cytochrome P450 inhibition, Protocol A, cDNA expressed proteins, fluorogenic substrates; format: in vitro ADME; details: % inhibition at 10 μM; substrate BFC; cDNA expressed protein
Summary of the method: (§1)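 cDNA-expressed enzymes with fluorogenic substrates (three separate ones for CYP3A4) in sodium/potassium buffer pH 7.4 plus NADPH-generating system. Compounds at 1 nM to 10 μM final, prewarmed 5 min at 37° C, reaction started with NADP+, stopped, then fluorescence measured.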

Sequence of CYP3A4 (P08684 whole entry): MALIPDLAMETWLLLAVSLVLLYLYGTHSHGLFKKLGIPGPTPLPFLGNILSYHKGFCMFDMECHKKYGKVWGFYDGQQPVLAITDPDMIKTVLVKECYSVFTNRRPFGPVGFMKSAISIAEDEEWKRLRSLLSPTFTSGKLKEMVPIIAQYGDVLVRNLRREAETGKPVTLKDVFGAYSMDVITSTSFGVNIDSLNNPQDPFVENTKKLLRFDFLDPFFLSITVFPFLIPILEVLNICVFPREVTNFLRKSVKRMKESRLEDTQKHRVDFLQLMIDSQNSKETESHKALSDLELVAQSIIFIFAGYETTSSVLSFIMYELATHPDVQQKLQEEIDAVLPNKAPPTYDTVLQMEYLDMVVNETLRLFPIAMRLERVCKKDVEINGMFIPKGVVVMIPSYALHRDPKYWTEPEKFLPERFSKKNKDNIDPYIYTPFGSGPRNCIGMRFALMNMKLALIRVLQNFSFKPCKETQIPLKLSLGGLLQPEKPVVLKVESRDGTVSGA

Structure (SMILES) | hCYP3A4_BFC_Pct_Inh [%]
CC(=O)c1ccc(C2=NCc3cccc(Cl)c3-n3cccc32)cc1 [Compound 15, 1-[4-(10-chloro-6H-pyrrolo[1,2-a][1,4]benzodiazepin-4-yl)phenyl]-ethanone] | 1
CC(=O)c1cc(C2=NCc3c(Cl)cccc3-n3cccc32)ccc1F [Compound 19, 1-[5-(7-chloro-6H-pyrrolo[1,2-a][1,4]benzodiazepin-4-yl)-2-fluorophenyl]-ethanone] | 26
CC(=O)c1ccc(C2=NCc3c(F)cccc3-n3cccc32)cc1 [Compound 20, 1-[4-(7-fluoro-6H-pyrrolo[1,2-a][1,4]benzodiazepin-4-yl)phenyl]-ethanone] | 1

same assay, conditions: % inhibition at 10 μM; substrate BQ; cDNA expressed protein

Structure (SMILES) | hCYP3A4_BQ_Pct_Inh [%]
CC(=O)c1ccc(C2=NCc3cccc(Cl)c3-n3cccc32)cc1 [Compound 15, 1-[4-(10-chloro-6H-pyrrolo[1,2-a][1,4]benzodiazepin-4-yl)phenyl]-ethanone] | 40
CC(=O)c1cc(C2=NCc3c(Cl)cccc3-n3cccc32)ccc1F [Compound 19, 1-[5-(7-chloro-6H-pyrrolo[1,2-a][1,4]benzodiazepin-4-yl)-2-fluorophenyl]-ethanone] | 49
CC(=O)c1ccc(C2=NCc3c(F)cccc3-n3cccc32)cc1 [Compound 20, 1-[4-(7-fluoro-6H-pyrrolo[1,2-a][1,4]benzodiazepin-4-yl)phenyl]-ethanone] | 25

same assay, conditions: % inhibition at 10 μM; substrate DBF; cDNA expressed protein

Structure (SMILES) | hCYP3A4_DBF_Pct_Inh [%]
CC(=O)c1ccc(C2=NCc3cccc(Cl)c3-n3cccc32)cc1 [Compound 15, 1-[4-(10-chloro-6H-pyrrolo[1,2-a][1,4]benzodiazepin-4-yl)phenyl]-ethanone] | 16
CC(=O)c1cc(C2=NCc3c(Cl)cccc3-n3cccc32)ccc1F [Compound 19, 1-[5-(7-chloro-6H-pyrrolo[1,2-a][1,4]benzodiazepin-4-yl)-2-fluorophenyl]-ethanone] | 49
CC(=O)c1ccc(C2=NCc3c(F)cccc3-n3cccc32)cc1 [Compound 20, 1-[4-(7-fluoro-6H-pyrrolo[1,2-a][1,4]benzodiazepin-4-yl)phenyl]-ethanone] | 5

tested on: Cryptococcus neoformans B66663; test: Antifungal activity in vitro (resazurin susceptibility screen), Inf. F; format: cell-based; details: Cryptococcus neoformans, B66663, Cryptococcus neoformans B66663; 37 °C, 24 hours, resa time 4 hours; read-out: Inf. F pIC50 (converted)
Summary of the method: (§2)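 Compound serial dilutions were spotted onto test plates, kept in the dark at 4 °C for at most 2 weeks. Cryopreserved isolates were diluted 1/1000 in medium just before use and added at 10^3 cfu per well. Each plate carried drug-free culture as 100% growth and RPMI-MOPS medium alone as 0% growth.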

Structure (SMILES) | IC50 [nM]
CC(=O)c1ccc(C2=NCc3cccc(Cl)c3-n3cccc32)cc1 [Compound 15, 1-[4-(10-chloro-6H-pyrrolo[1,2-a][1,4]benzodiazepin-4-yl)phenyl]-ethanone] | 2000
CC(=O)c1cc(C2=NCc3c(Cl)cccc3-n3cccc32)ccc1F [Compound 19, 1-[5-(7-chloro-6H-pyrrolo[1,2-a][1,4]benzodiazepin-4-yl)-2-fluorophenyl]-ethanone] | > 63100
CC(=O)c1ccc(C2=NCc3c(F)cccc3-n3cccc32)cc1 [Compound 20, 1-[4-(7-fluoro-6H-pyrrolo[1,2-a][1,4]benzodiazepin-4-yl)phenyl]-ethanone] | > 63100

tested on: Trichophyton rubrum B68183; test: Antifungal activity in vitro (resazurin susceptibility screen), Inf. C; format: cell-based; details: Trichophyton rubrum B68183; 27 °C, 7 days, resa time 24 hours; read-out: Inf. C pIC50 (converted)
Summary of the method: as §2

Structure (SMILES) | IC50 [nM]
CC(=O)c1ccc(C2=NCc3cccc(Cl)c3-n3cccc32)cc1 [Compound 15, 1-[4-(10-chloro-6H-pyrrolo[1,2-a][1,4]benzodiazepin-4-yl)phenyl]-ethanone] | 126
CC(=O)c1cc(C2=NCc3c(Cl)cccc3-n3cccc32)ccc1F [Compound 19, 1-[5-(7-chloro-6H-pyrrolo[1,2-a][1,4]benzodiazepin-4-yl)-2-fluorophenyl]-ethanone] | 200
CC(=O)c1ccc(C2=NCc3c(F)cccc3-n3cccc32)cc1 [Compound 20, 1-[4-(7-fluoro-6H-pyrrolo[1,2-a][1,4]benzodiazepin-4-yl)phenyl]-ethanone] | 100

target: CYP2C9 (Homo sapiens, UniProt P11712); test: Cytochrome P450 inhibition, Protocol A, cDNA expressed proteins, fluorogenic substrate; format: in vitro ADME; details: % inhibition at 10 μM; substrate MFC; cDNA expressed protein
Summary of the method: as §1

Sequence of CYP2C9 (P11712 whole entry): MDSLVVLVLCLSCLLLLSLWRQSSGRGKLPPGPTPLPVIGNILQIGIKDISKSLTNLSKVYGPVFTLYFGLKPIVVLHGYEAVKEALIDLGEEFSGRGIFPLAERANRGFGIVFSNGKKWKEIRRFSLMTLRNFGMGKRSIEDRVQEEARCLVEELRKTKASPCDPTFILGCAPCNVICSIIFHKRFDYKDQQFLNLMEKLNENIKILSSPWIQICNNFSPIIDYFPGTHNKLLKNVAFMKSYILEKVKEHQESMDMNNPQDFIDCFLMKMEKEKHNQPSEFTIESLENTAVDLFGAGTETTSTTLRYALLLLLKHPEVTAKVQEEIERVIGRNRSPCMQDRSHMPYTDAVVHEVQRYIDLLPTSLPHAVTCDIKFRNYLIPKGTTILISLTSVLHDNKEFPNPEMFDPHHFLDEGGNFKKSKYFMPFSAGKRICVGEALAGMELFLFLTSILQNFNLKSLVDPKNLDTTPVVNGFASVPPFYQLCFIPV

Structure (SMILES) | hCYP2C9_MFC_Pct_Inh [%]
CC(=O)c1ccc(C2=NCc3cccc(Cl)c3-n3cccc32)cc1 [Compound 15, 1-[4-(10-chloro-6H-pyrrolo[1,2-a][1,4]benzodiazepin-4-yl)phenyl]-ethanone] | 60
CC(=O)c1cc(C2=NCc3c(Cl)cccc3-n3cccc32)ccc1F [Compound 19, 1-[5-(7-chloro-6H-pyrrolo[1,2-a][1,4]benzodiazepin-4-yl)-2-fluorophenyl]-ethanone] | 60
CC(=O)c1ccc(C2=NCc3c(F)cccc3-n3cccc32)cc1 [Compound 20, 1-[4-(7-fluoro-6H-pyrrolo[1,2-a][1,4]benzodiazepin-4-yl)phenyl]-ethanone] | 43

target: T1, CYP1A2 (Homo sapiens, UniProt P05177); test: as above; format: in vitro ADME; details: % inhibition at 10 μM; substrate CEC; cDNA expressed protein
T1 sequence (P05177 1-516): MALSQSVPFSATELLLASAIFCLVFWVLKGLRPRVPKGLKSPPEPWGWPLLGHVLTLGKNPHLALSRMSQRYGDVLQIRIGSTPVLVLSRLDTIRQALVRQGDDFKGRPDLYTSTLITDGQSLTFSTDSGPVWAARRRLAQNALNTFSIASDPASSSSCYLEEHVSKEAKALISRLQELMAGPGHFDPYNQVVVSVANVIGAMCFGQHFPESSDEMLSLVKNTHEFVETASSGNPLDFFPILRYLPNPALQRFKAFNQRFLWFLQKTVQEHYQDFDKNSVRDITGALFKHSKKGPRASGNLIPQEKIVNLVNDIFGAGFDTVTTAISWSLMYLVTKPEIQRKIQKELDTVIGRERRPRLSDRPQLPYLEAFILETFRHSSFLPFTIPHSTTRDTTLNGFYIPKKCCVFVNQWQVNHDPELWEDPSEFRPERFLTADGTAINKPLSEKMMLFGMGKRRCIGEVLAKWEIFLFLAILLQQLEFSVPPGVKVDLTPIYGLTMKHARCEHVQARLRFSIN
Summary of the method: as §1

Structure (SMILES) | hCYP1A2_CEC_Pct_Inh [%]
CC(=O)c1ccc(C2=NCc3cccc(Cl)c3-n3cccc32)cc1 [Compound 15, 1-[4-(10-chloro-6H-pyrrolo[1,2-a][1,4]benzodiazepin-4-yl)phenyl]-ethanone] | 38
CC(=O)c1cc(C2=NCc3c(Cl)cccc3-n3cccc32)ccc1F [Compound 19, 1-[5-(7-chloro-6H-pyrrolo[1,2-a][1,4]benzodiazepin-4-yl)-2-fluorophenyl]-ethanone] | 44
CC(=O)c1ccc(C2=NCc3c(F)cccc3-n3cccc32)cc1 [Compound 20, 1-[4-(7-fluoro-6H-pyrrolo[1,2-a][1,4]benzodiazepin-4-yl)phenyl]-ethanone] | 18

tested on: Scedosporium apiospermum IHEM3817; test: Antifungal activity in vitro (resazurin susceptibility screen), Inf. H; format: cell-based; details: 37 °C, 48 hours, resa time 17 hours, read-out: Inf. H pIC50 (converted)
Protocol: The standard susceptibility screen was performed in 96-well plates (U-bottom, Greiner Bio-One). […] These serial dilutions (10 n1) were then spotted onto test-plates that could be stored in the dark at 4° C. for a maximum period of 2 weeks. […] The different fungal species/isolates (Table 3a) were cryopreserved and 1/1000 diluted in medium just prior to use. A standard inoculum of 200 μl containing 10^3 colony-forming unit (cfu) was then added to each well. A positive control (100% growth=fungal culture without antifungal) and a negative control (0% growth ═RPMI-MOPS medium) were included on each plate. […] [table]

Structure (SMILES) | IC50 [nM]
CC(=O)c1ccc(C2=NCc3cccc(Cl)c3-n3cccc32)cc1 [Compound 15, 1-[4-(10-chloro-6H-pyrrolo[1,2-a][1,4]benzodiazepin-4-yl)phenyl]-ethanone] | 10000
CC(=O)c1cc(C2=NCc3c(Cl)cccc3-n3cccc32)ccc1F [Compound 19, 1-[5-(7-chloro-6H-pyrrolo[1,2-a][1,4]benzodiazepin-4-yl)-2-fluorophenyl]-ethanone] | > 63100
CC(=O)c1ccc(C2=NCc3c(F)cccc3-n3cccc32)cc1 [Compound 20, 1-[4-(7-fluoro-6H-pyrrolo[1,2-a][1,4]benzodiazepin-4-yl)phenyl]-ethanone] | > 63100
